Entries after “also recorded” stand apart in the source; their conditions may differ.
Legend:
NUP98-HOXD13 MDS mice [1] = test: NUP98-HOXD13 MDS mouse model, preventive effect (treatment from 3 months of age); format: in vivo; conditions: for Immature Lin+ cKit+ cells in bone marrow: 3 months-long treatment; for Erythropoiesis / erythroid maturation in bone marrow and spleen: CD71 and CD44 loss on Ter119+ cells; for ROS formation in Ter119+ erythroid precursors: flow cytometry; for NTBI levels: serum, 0.5 mg/ml in drinking water
Method: (§1) • The ferroportin inhibitor compound Fpn127 was tested in NUP98-HOXD13 MDS mice. Fpn127was administered in drinking water containing 1% glucose at the concentration of 0.5 mg/ml.
• To study the protective effect of ferroportin inhibitors according to the invention on the progressive development of iron overload and related toxicities, overall 15 3-month-old MDS mice were treated with the Example Compound Fpn127 and compared to age-and sex-matched 15 untreated MDS mice and wild-type control (total of 3 repeated experiments). Mice were treated for 3 months-from 3 to 6 months of age. During the treatment period 2 untreated and 1 treated MDS mice were lost. • MDS mice of 3 months of age already show a certain degree of anemia, which supports to use the ferroportin inhibitors in the treatment starting from 3 months to improve erythropoiesis and anemia (FIG. 1). • About 60-70% of MDS mice show a mild to moderate anemia at 3 months of age. According to Hb levels, 3 month-old MDS mice can be divided into 3 groups presenting very mild, mild and moderate anemia (no/very mild anemia: Hb>13 g/dl; mild anemia: 10 g/dl<Hb<13 g/dl; moderate anemia: 8 g/dl<Hb<10 g/dl) (FIG. 2). Rarely MDS mice show severe anemia at 3 months age (severe anemia: Hb<8 g/dl). This reflects the situation of MDS patients whose 70-80% present anemia at diagnosis with different degree of severity. • In MDS mice treated for 3 months with Fpn127 from 3 to 6 months of age, the following parameters were monitored: • Serum iron levels and NTBI; • Liver iron accumulation; • Anemia and blood parameters; • Erythropoiesis—including RBC maturation, erythroid precursor apoptosis and ROS; • Hematopoietic stem cells—including apoptosis, ROS and DNA damage; • Bone marrow macrophages and myeloid-derived suppressor cells (not shown). • The FIGS. 3 to 15 show the results obtained as average of 3 independent experiments.
• Similar as in the MDS mouse model described above, the kinetic effects of VIT-2763, administered into the drinking water (0.5 mg/ml) was investigated in NUP98-HOXD13 model of MDS.
• To study the protective effect of the compound on the progressive development of iron overload and related toxicities, 3-month-old MDS mice were treated and compared to age-and sex-matched untreated MDS mice and wild-type control. Mice were treated with VIT-2763 from 3 months of age on to follow longitudinally blood parameters and survival (FIGS. 16-19), or for 3 months-from 3 to 6 months of age, for cellular and biochemical analyses (FIGS. 20-24).

[2] = tested on: mouse model of β-thalassemia; conditions: cited from earlier work
NUP98-HOXD13 MDS mice [3] = test: NUP98-HOXD13 MDS mouse model, rescuing effect (treatment from 5 months of age); format: in vivo; conditions: for Leukemia development / Anemia after 5 months of treatment: additional results; for Leukemia development: WBC; for Anemia after 5 months of treatment: 10 months of age
Method: as §1
• To study the rescuing effect of the ferroportin inhibitors according to the invention on the established iron overload and related toxicities in MDS, overall 8 5-month-old MDS mice were treated with the Example Compound Fpn127 and compared to 8 age-and sex-matched MDS untreated mice and wild-type control (1 experiment). Mice were treated from 5 months of age onwards. During the treatment period 3 untreated and 3 treated MDS mice were lost. […] Other 2 mice died without the opportunity to monitor parameters. No molecular analysis of 5 month-old treated mice was obtained as this cohort was kept for further observing and monitoring. To better follow individual blood parameter modulation two cohorts of mice whose treatment has been started at 3 and 5 months of age respectively, are analyzed longitudinally once a month along the treatment.
• To study the rescuing effect of the compound on the established iron overload and related toxicities in MDS, 5-month-old MDS mice were treated and compared to age-and sex-matched untreated MDS mice and wild-type controls. Mice were treated from 5 months of age onwards. […] The anemia of MDS mice tends to worsen from 5 months of age on.

NUP98-HOXD13 MDS mice [4] = test: as above; format: in vivo; conditions: over a total of 10
transfused guinea pigs = conditions: cited from earlier work
[5] = 3 to 6 months of age, listed as VIT
[6] = 3 to 6 months of age, listed as VIT-2763
[7] = Annexin V, MDS mice, 3 to 6 months of age
[8] = MDS mice, 3 to 6 months of age, listed as Example Compound No. 127
[9] = MDS mice, 0.5 mg/ml, 3 to 6 months of age
[10] = MDS mice, 0.5 mg/ml, 3 to 6 months of age, listed as Example Compound No. 127
[11] = bone marrow, MDS mice, 3 to 6 months of age
[12] = treated from 3 months of age on, from 5 through 7 months of age
[13] = treated from 5 months of age, listed as VIT
[14] = treated from 5 months of age, listed as VIT-2763

O=C(NCc1ncccc1F)c1coc(CCNCCc2nc3ccccc3[nH]2)n1 [Fpn127]
Immature Lin+ cKit+ cells in bone marrow (NUP98-HOXD13 MDS mice [1]; [5]): reduced | Immature Lin+ cKit+ cells in bone marrow (NUP98-HOXD13 MDS mice [1]; [6]): reduces | Bone marrow CD11b+ myeloid cells (myeloid expansion) (NUP98-HOXD13 MDS mice [1]; [5]): reduced | IL-1β production by bone marrow macrophages (NUP98-HOXD13 MDS mice [1]; [5]): reduced | Macrophage number in bone marrow (NUP98-HOXD13 MDS mice [1]; [5]): improved macrophage number | Monocytic and granulocytic myeloid-derived suppressor cells (MDSCs) in bone marrow (NUP98-HOXD13 MDS mice [1]; [5]): reduced | TNFα production by bone marrow macrophages (NUP98-HOXD13 MDS mice [1]; [5]): reduced | Bone marrow CD11b+ myeloid cells (myeloid expansion) (NUP98-HOXD13 MDS mice [1]; [6]): reduces myeloid expansion | IL-1β production by bone marrow macrophages (NUP98-HOXD13 MDS mice [1]; [6]): limits | Macrophage number in bone marrow (NUP98-HOXD13 MDS mice [1]; [6]): improves macrophage number | Monocytic and granulocytic myeloid-derived suppressor cells (MDSCs) in bone marrow (NUP98-HOXD13 MDS mice [1]; [6]): reduces myeloid expansion | TNFα production by bone marrow macrophages (NUP98-HOXD13 MDS mice [1]; [6]): limits | Apoptosis in Ter119+ erythroid precursors (NUP98-HOXD13 MDS mice [1]; [7]): decreasing; also recorded: reduced | Cell survival / apoptosis of LSK cells (NUP98-HOXD13 MDS mice [1]; [7]): lower apoptosis | Apoptosis in Ter119+ erythroid precursors (NUP98-HOXD13 MDS mice [1]; Annexin V, MDS mice, 3 to 6 months of age, listed as Example Compound No. 127): prevent their apoptosis | Erythropoiesis / erythroid maturation in bone marrow and spleen (NUP98-HOXD13 MDS mice [1]; MDS mice, 3 to 6 months of age): improves bone marrow erythroid maturation; also recorded: improves splenic erythroid maturation; also recorded: significantly improved | Erythropoiesis / erythroid maturation in bone marrow and spleen (NUP98-HOXD13 MDS mice [1]; [8]): improve ineffective erythropoiesis | Improvement of Hb levels (NUP98-HOXD13 MDS mice [1]; MDS mice treated from 3 months of age, after 2, 3 and 4 months of treatment): about 2 g/dl | Anemia, longitudinal monitoring (NUP98-HOXD13 MDS mice [1]; MDS mice treated with 0.5 mg/ml from 3 months of age): improves anemia | Serum iron levels (NUP98-HOXD13 MDS mice [1]; MDS mice, 0.5 mg/ml in drinking water for 3 months, 3 to 6 months of age): reduces; also recorded: significantly decreased | Anemia (NUP98-HOXD13 MDS mice [1]; [9]): Improved anemia; also recorded: ameliorates anemia | HCT (NUP98-HOXD13 MDS mice [1]; [9]): significantly improved | Hb (NUP98-HOXD13 MDS mice [1]; [9]): significantly improved | Kidney iron content (NUP98-HOXD13 MDS mice [1]; [9]): significantly decreased | Liver iron content (NUP98-HOXD13 MDS mice [1]; [9]): prevents iron loading; also recorded: significantly decreased | MCH (NUP98-HOXD13 MDS mice [1]; [9]): remain unchanged | MCV (NUP98-HOXD13 MDS mice [1]; [9]): remain unchanged | Platelet count (NUP98-HOXD13 MDS mice [1]; [9]): remains unchanged | RBC (NUP98-HOXD13 MDS mice [1]; [9]): significantly improved | Reticulocytes (NUP98-HOXD13 MDS mice [1]; [9]): trend to improvement | Spleen iron (NUP98-HOXD13 MDS mice [1]; [9]): further elevated | WBC count elevation / progression to leukemia (NUP98-HOXD13 MDS mice [1]; [9]): trend in reducing progression to leukemia; also recorded: only one mouse show a trend to elevated WBC count | Anemia (NUP98-HOXD13 MDS mice [1]; [10]): ameliorate anemia | Liver iron content (NUP98-HOXD13 MDS mice [1]; [10]): prevent | Double strand breaks (γH2AX) in LSK cells (NUP98-HOXD13 MDS mice [1]; MDS mice, 3 to 6 months of age): reduced double strand breaks | ROS production in LSK cells (NUP98-HOXD13 MDS mice [1]; MDS mice, 3 to 6 months of age): decreased ROS production | Expression of CD71 on Ter119+ erythroid precursors (NUP98-HOXD13 MDS mice [1]; bone marrow and spleen, MDS mice, 3 to 6 months of age): significant reduction | Overall status of hematopoietic LSK stem cells (NUP98-HOXD13 MDS mice [1]; [11]): improves the overall status; also recorded: overall improvement | Pool of LSK cells (NUP98-HOXD13 MDS mice [1]; [11]): likely preserved | ROS formation in Ter119+ erythroid precursors (NUP98-HOXD13 MDS mice [1]; MDS mice, 3 to 6 months of age): decreasing; also recorded: reduced | ROS formation in Ter119+ erythroid precursors (NUP98-HOXD13 MDS mice [1]; [8]): limit | Iron accumulation in LSK cells (NUP98-HOXD13 MDS mice [1]; labile iron, MDS mice, 3 to 6 months of age): reduced iron accumulation | WBC increase in peripheral blood / leukemia evolution (NUP98-HOXD13 MDS mice [1]; longitudinal, treated from 3 months of age, listed as VIT-2763): delays leukemia evolution; also recorded: not observed or delayed | NTBI levels (NUP98-HOXD13 MDS mice [1]; MDS mice, 3 to 6 months of age): reduces; also recorded: significantly decreased | NTBI levels (NUP98-HOXD13 MDS mice [1]; [8]): prevent NTBI formation | Survival (Kaplan-Meier) (NUP98-HOXD13 MDS mice [1]; treated from 3 months of age): improves MDS mice survival | HCT, longitudinal monitoring (NUP98-HOXD13 MDS mice [1]; [12]): significantly improved | Hb, longitudinal monitoring (NUP98-HOXD13 MDS mice [1]; [12]): significantly improved | RBC, longitudinal monitoring (NUP98-HOXD13 MDS mice [1]; [12]): significantly improved | Anemia [2]: ameliorated anemia | Liver iron loading [2]: prevents liver iron loading | Ineffective erythropoiesis ([2]; oral): improves ineffective erythropoiesis | Leukemia development (NUP98-HOXD13 MDS mice [3]; [13]): delayed leukemia development | Leukemia development (NUP98-HOXD13 MDS mice [3]; [14]): delays leukemia evolution | Anemia after 5 months of treatment (NUP98-HOXD13 MDS mice [3]; [13]): improved anemia was observed | Anemia after 5 months of treatment (NUP98-HOXD13 MDS mice [3]; [14]): improves anemia | Median survival improvement compared to untreated mice (NUP98-HOXD13 MDS mice [3]; older MDS mice, treated from 5 months of age): about 16 days | Hb of treated mice still alive at 15 months of age (NUP98-HOXD13 MDS mice [3]; stable blood parameters): about 9 g/dl | Survival (Kaplan-Meier) (NUP98-HOXD13 MDS mice [3]; treated from 5 months of age): improves MDS mice survival | Anemia after 3 months of treatment (NUP98-HOXD13 MDS mice [3]; treated from 5 months of age, 5 to 8 months of age): failed to observe improved anemia | Anemia in older MDS mice (NUP98-HOXD13 MDS mice [3]; treated from 5 months of age, mice at 9 and 10 months of age, subset of mice): improves anemia; also recorded: partial improvement of anemia | Progression to leukemia / leukemia-related death (NUP98-HOXD13 MDS mice [3]; treated from 5 months of age, mice that died): reduces leukemia-related death; also recorded: no apparent progression to leukemia | Life span reached by MDS mice benefiting from treatment (NUP98-HOXD13 MDS mice [3]; untreated all dying within 400 days): up to 600 days | Treated MDS mice still alive at 15 months of age (NUP98-HOXD13 MDS mice [4]): two

O=C(NCc1ncccc1F)c1csc(CCNCc2nc3ccccc3[nH]2)n1 [VIT-2653]
Hb levels following exchange transfusion (transfused guinea pigs; guinea pigs, intravenous): significantly improved | NTBI levels following exchange transfusion (transfused guinea pigs; guinea pigs, intravenous): significantly improved | Total iron in kidneys following transfusion (transfused guinea pigs; guinea pigs, intravenous): can be reduced | Occurrence of changes in plasma creatinine >0.3 mg/dL (early acute kidney injury) (transfused guinea pigs; transfused guinea pigs): significantly reduced
